# Experimental data from US20250346943A1, “DEGRADER COMPOUNDS OF QSOX1 mRNA” (UNIVERSITY OF FLORIDA RESEARCH FOUNDATION, INCORPORATED, priority 2022, published 2025).
# Experiments:
# [1] = biological target: QSOX1 5′UTR hairpin (model of the QSOX1-a binding site); experiment: In vitro binding by fluorescence polarization, Cy5-labeled WT RNA; parameters: species or system human
# Protocol: In Vitro Binding by Measuring Changes in Fluorescence Polarization. Cy5-labeled RNA was folded by heating at 95° C. for 2 min in 1× Folding Buffer and cooled on ice. Serial dilutions of F1 (200 to 0.4 μM, 1:1 dilutions) were prepared in 1× Folding Buffer with 4% (w/v) bovine serum albumin (BSA) with constant DMSO concentration (2% v/v). The compound solutions (10 μL) were added to a well of non-binding 384-well plate (Corning). An equal volume of folded RNA was adding to each well with a final concentration of 50 nM. The samples were incubated at room temperature for 30 min, and then fluorescence polarization was measured with a Molecular Devices SpectraMax M5 plate reader with an excitation wavelength of 640 nm and an emission wavelength of 680 nm.
# QSOX-1b = experiment: QSOX1-b protein abundance by Western blotting in MDA-MB-231 cells; assay type: cell-based, human
# Protocol: Measuring Protein Abundance by Western Blotting. MDA-MB-231 cells were seeded in 6-well plates at ˜50% confluency and treated with vehicle (DMSO) or compound as described above but without EU treatment. After 16 h, the compound-containing growth medium was removed and replaced with fresh medium containing compound (re-dosing). After an additional 32 h incubation, total protein was harvested (48 h total treatment time). The cells were then washed twice with cold 1×DPBS, and total protein was harvested by using Mammalian Protein Extraction Reagent (M-PER, Thermo Scientific) per the manufacturer's protocol. Protein concentration was quantified by using BCA Protein Assay Kit (Pierce), and the proteins were separated by using 10% SDS-polyacrylamide gel (20 μg protein per lane). After gel electrophoresis in 1× Running Buffer (50 mM MOPS, 50 mM Tris-base, pH 7.5, 1 mM EDTA, and 0.1% (w/v) SDS) at 120 V for 1 h, the proteins were transferred to a PVDF membrane (0.45 μm, Cytiva) at 300 mA for 1 h in 1× Transfer Buffer (25 mM Bicine, 25 mM Tris-base, pH 7.5, 1:4 MeOH:H2O). The membrane was blocked with 5% (w/v) non-fat dry milk in TBST (1×TBS containing 0.1% (v/v) Tween-20) for 1 h at room temperature. […] Expression levels of proteins were quantified based on band intensity by using ImageJ. […]
# human transcriptome = experiment: Chem-CLIP-Map-Seq transcriptome-wide target profiling in live MDA-MB-231 cells; assay type: cell-based; details: 20 μM, 16 h
# Protocol: Additional studies were performed in live MDA-MB-231 cells to profile the cellular targets as well as the small molecule binding site within them, via Chem-CLIP-Map-Seq,^21 which had not previously been applied transcriptome-wide. After treatment (20 μM; 16 h) and cross-linking, total RNA was harvested and fragmented prior to pull-down (FIG. 2A). Random fragmentation was completed first to: 1) reduce sequence bias in library preparation, 2) reduce background signal in the RNA-seq analysis; and 3) allow for only the regions bound by the small molecules to be pulled down rather than the entire transcript, identifying both the target and the binding site within it. In parallel, a control diazirine probe that lacks an RNA-binding functionality (FIG. 2B) was used to identify targets that non-specifically react with the cross-linking moiety, where cross-linking is not driven by the RNA-binding elements.
# Genrich uses a null model with a log-normal distribution to calculate p values by comparing sequencing runs of the same RNA sample before and after pull-down.
# Chemical-Cross-linking and Isolation by Pull-down (Chem-CLIP) in Live Cells. MDA-MB-231 cells were seeded in 60 mm dishes and allowed to reach ˜80% confluency. The cells were then treated with 20 μM of compound in growth medium and incubated for 16 h. Cells were washed with 1×DPBS and irradiated with UV light for 10 min. Total RNA was harvested using a Zymo Quick-RNA Miniprep Kit per the manufacturer's protocol with DNase treatment. Total RNA was chemically fragmented by using an NEBNext Magnesium RNA Fragmentation Module (E6150S) per manufacturer's protocol to achieve final lengths between 100-150 nucleotides Pull-down of cross-linked RNAs was performed by adding 10 μg of total RNA to 100 μL of azide-disulfide agarose beads (Click Chemistry Tools, 1238-2) pre-washed with 25 mM HEPES, pH 7.0. The click reaction and pull-down were completed as described in “In Vitro Chemical-Crosslinking and Isolation by Pull-down (Chem-CLIP) with Fluorescently Labeled RNA”. The pulled down RNA was purified by RNA CleanXP beads (Beckman, A66514) per manufacturer's protocol.
# RNA-seq Library Preparation and Data Analysis. The quality of the pulled down RNA was analyzed by using an Agilent 2100 Bioanalyzer RNA nanochip as well as to confirm fragment lengths. RNA concentration was quantified by Qubit 2.0 Fluorometer (Invitrogen). The input RNA (200 ng) was depleted of ribosomal RNA with NEBNext rRNA Depletion Module (E6310) according to manufacturer's recommendations. Library preparation was performed with NEBNext Ultra II Directional RNA kit (E7760) per manufacturer's protocols. Briefly, the rRNA-depleted samples were reverse transcribed with random hexamer primers to generate first strand cDNA, followed by second strand synthesis with dUTP instead of dTTP. The cDNA was end repaired and adenylated at their 3′ ends, followed by adaptor ligation. The strand information of the RNA was preserved by using USER enzyme (Uracil-specific excision reagent) to degrade the second strand. The cDNA was then PCR amplified with barcoded Illumina-compatible primers to generate the final libraries. These libraries were loaded into a NextSeq 500 v2.5 flow cell and sequenced with 2×40 bp paired-end chemistry. All fastq files were aligned to the human genome by STAR.^9 The output bam files were processed by Genrich (v0.6.1, available at https://github.com/jsh58/Genrich) for peak calling to identify regions of enrichment (p<0.001 and False Discovery Rate=1%). Fold enrichment was calculated by Deeptool^10 and visualized by IGV browser.^11 A minimum read count of 5 and a minimum fold enrichment of 1.5 were applied filter to filter out low-confidence peaks.
SMILES,Kd [1] [µM],effect on QSOX-1b levels (QSOX-1b),largest enrichments (two transcripts) (human transcriptome) [fold],number of transcripts enriched after eliminating transcripts also bound by the control diazirine (human transcriptome)
CCOC(=O)C1=C(Nc2ccccc2)S/C(=C\c2ccc(OCCOCCOCCOCCNC(=O)CCC(=O)N(C)[C@H]3CC[C@@H](c4ccc(Cl)c(Cl)c4)c4ccccc43)c(O)c2)C1=O [Compound F1-RIBOTAC],11 ± 5,no effect,–,–
C#CCCC1(CCC(=O)N(C)[C@H]2CC[C@@H](c3ccc(Cl)c(Cl)c3)c3ccccc32)N=N1 [Compound F1],–,–,> 12,51
